Data: patent US10407712B2, “Methods, compositions and kits for high throughput kinase activity screening using mass spectrometry and stable isotopes” (President and Fellows of Harvard College, priority 2008, dated 2019)

Legend:
Src family kinase = assay: Immunoblot of HEK293 cells treated with Src family kinase inhibitor; type: cell-based, human; settings: asynchronously growing HEK293 cells
Protocol: FIG. 7E is a photograph of immunoblot data of lysates following treatment of asynchronously growing HEK293 cells with Sic family kinase (SFK) specific inhibitor SU6656 in starved or serum-fed cells.
Lysates were resolved on 4 to 12% SDS/PAGE, transferred onto Potran membranes (Whatman), blocked with 3% milk in TBST (Tris Buffered Saline Tween-20), incubated with 1:1,000 dilution of primary antibody at 4° C. overnight, washed, and incubated with a 1:5,000 dilution of second antibody (HRP-conjugated) with 3% milk in TBST for 1 h at room temperature. Bands were visualized with ECL solution (Roux et al. 2004 Proc Natl Acad Sci USA 101: 13489-[…]).
To further investigate whether this is a Src-dependent site in vivo, asynchronously growing HEK293 cells were treated with the specific Src family kinase inhibitor, Su6656. […] Further, MCF10A cells expressing v-Src:estrogen receptor (Reginato et al. 2005 Mol Cell Biol 25: 4591-4601) were treated with 1 μM 4-hydroxytamoxifen (4-HT) to activate v-Src as a function of time (FIG. 7F).

HeLa cell lysates = assay: KAYAK in vitro kinase assay, lysates of asynchronous, G1/S- or G2/M-arrested HeLa cells; type: biochemical, human
Protocol: For cell cycle examples, HeLa cells were synchronized by double thymidine block for G1/S-arrest and by 0.2 μg/ml nocodazole for G2/M-arrest as described (Dephoure et al. 2008 Proc Natl Acad Sci USA 105: 10762-10767). Synchronization was confirmed by flow cytometry.
For cell lysis, the media were removed, and cells were washed with ice-cold phosphate-buffered saline (PBS) and lysed with ice-cold lysis buffer (10 mM K2HPO4 pH 7.5, 1 mM EDTA, 10 mM MgCl2, 50 mM β-glycerophosphate, 5 mM EGTA, 0.5% Nonidet P-40, 0.1% Brij 35, 0.1% deoxycholic acid, 1mM sodium orthovanadate, 1mM phenylmethyl-sulfonyl fluoride, 5 μg/ml leupeptin and 5 μg/ml pepstatin A). Lysates were centrifuged at 10,000 rpm for 10 min to remove cell debris, and clear supernatant was used for immunoblotting and in vitro kinase assays. Protein concentration was determined by Bradford assay (Biorad, Hercules, Calif.).
Peptides were synthesized, purified and quantified as described in Yu et al. 2009 Proc Natl Acad Sci USA 106: 11606-11611, hereby incorporated by reference herein in its entirety. Each substrate peptide (250 pmol) was mixed to a final concentration of 5 μM in the 50 μL reaction mixture. Alternatively, reactions were performed using 6 μg cell lysate aliquotes mixed to a final volume of 20 μl. Cell lysate or other kinase source was added to the substrate mixture in 25 mM Tris-Cl, pH 7.5, containing 5 mM ATP, 7.5 mM MgCl2, 0.2 mM EGTA, 7.5 mM β-glycerophosphate, 0.1 mM Na3VO4, and 0.1 mM DTT. The reaction was incubated at 25° C. for 60 min and then terminated by the addition of 100 μl of 1% trifluoroacetic acid (TFA) containing a known amount of an internal standard (typically 20 pmol). Alternatively, the reaction was incubated at 20° C. for 45 min before termination with TFA.
Forty-five individual in vitro kinase reaction mixtures were combined and desalted by using Sep-Pak C18 cartridge (Waters, Milford, Mass.). Phosphopeptides were enriched by immobilized metal ion chromatography (IMAC) with 20 μl of beads (Phos-Select iron affinity gel; Sigma, St. Louis, Mo.) and subsequently desalted by using Empore C18 solid phase extraction disks (3M, St. Paul, Minn.) as described previously.
Quantitation of the target peptide-internal standard ratios was performed by first constructing the extracted ion chromatogram for the most abundant charge state for each peptide using a ±10 ppm window. Chromatograms were integrated using Qual/Quan browser (Xcalibur 2.0.5, Thermo Fisher, San Jose, Calif.). Since the phosphorylated peptides generated from the in vitro kinase reactions were chemically identical to the internal standards, they were assumed to have the same ionization efficiency. Therefore, the amount of each phosphorylated peptide was calculated by direct ratio to the internal standard level.
To test substrate suitability in a multiplexed assay, the phosphorylation activities were measured using […] of each substrate peptide, 6 μg lysate, and 5 mM ATP in a plate format. Reactions proceeded for 60 minutes followed by acidification and the addition of isotope-labeled reference peptides. After pooling 45 samples, phosphopeptide enrichment was followed by liquid-chromatography (LC) separation and on-line peptide detection by high-resolution mass spectrometry.
In order to examine target peptides with cell-cycle-dependent phosphorylation, kinase activities in asynchronously growing HeLa cells were profiled and the profiles were compared with those of cells synchronized in G1/S and G2/M phase using a double-thymidine block and nocodazole arrest, respectively (FIG. 3B).

EGFR = molecular target: T1, EGFR (Homo sapiens, UniProt P00533); assay: In vitro kinase reaction of H5 peptide with purified EGFR; type: biochemical
T1 construct: epidermal growth factor (EGF) receptor (EGFR, 672-1210); purchased Cell Signaling Technology (Danvers, Mass.)
From the text: (§1) FIG. 7D is a line graph showing in vitro phosphorylation of peptide H5 (SEQ ID NO: 87) using each of purified Src and EGFR.
(§2) Purified human active kinases of Akt1 (full length), extracellular signal-regulated kinase 1 (ERK1, 1-379), mitogen-activated protein kinase kinase 1 (MEK1, 1-393), 90 kDa ribosomal S6 kinases 1 (RSK1, 1-735), cAMP-dependent protein kinase (PKA) catalytic subunit-α (PKA Cα, 1-351), protein kinase Cα (PKCα, full length), epidermal growth factor (EGF) receptor (EGFR, 672-1210), platelet-derived growth factor (PDGF) receptor α (PDGFRα, 550-1090), vascular endothelial growth factor (VEGF) receptor 1 (VEGFR1 784-1338), Src (full length), casein kinase 2 (CK2, full length), Aurora A (1-403), AMP-activated protein kinase α1β1γ1 (AMPK α1β1γ1, full length), glycogen synthase kinase-3α (GSK-3α, 1-483) and MAP/microtubule affinity-regulating kinase 1 (MARK 1, full length) were obtained from Cell Signaling Technology (Danvers, Mass.). Cdc2/cyclin B1 (full length) and insulin-like growth factor (IGF)-I receptor (IGFIR, 959-1367) were obtained from Upstate (Temecula, Calif.).
(§3) In order to identify the kinase that phosphorylates p55 (Tyr-199) lysates of serum-starved HEK293 cells were used for insulin, IGF and EGF stimulation. […]

Src = molecular target: T2, Src (Homo sapiens, UniProt P12931); assay: In vitro kinase reaction of H5 peptide with purified Src; type: biochemical
T2 construct: Src (full length); purchased Cell Signaling Technology (Danvers, Mass.)
From the text: as §1, §2, §3

Compound	level of phospho-Src (Tyr-416) (Src family kinase)	level of phospho-p55 (Tyr-199) (Src family kinase)	increase in phosphorylation in G2/M (HeLa cell lysates; G2/M (nocodazole-arrested) HeLa lysate vs asynchronously growing cells)	G2/M: changed phosphorylation (HeLa cell lysates; G2/M phase compared to asynchronously growing HeLa cells)	phosphorylation by EGFR (EGFR)	phosphorylation by Src (Src)
CN(C)S(=O)(=O)c1ccc2c(c1)/C(=C/c1cc3c([nH]1)CCCC3)C(=O)N2 [Su6656, SU6656]	diminished	diminished				
EYDRLYEEYTPFR (The sequence was designed and synthesized) [H5]			13 fold	++ (A change of more than +4 and −4 fold is indicated by “++” and “−−”, respectively.)	not	robust phosphorylation
